Data from PubChem BioAssay AID540252 (Sanford-Burnham Center for Chemical Genomics, 2011).
Activity calls are given as the source filed them. The rule behind the calls is not given here.

Target: glucose-6-phosphate dehydrogenase-6-phosphogluconolactonase (Plasmodium falciparum 3D7)
Assay: PfG6PD enzyme inhibitors, direct NADPH readout, dose response, orthogonal assay, biochemical, end-point NADPH detection (AID 540252)
Settings: purified PfG6PD enzyme

## O=c1c2ccccc2sn1-c1ccccc1F
  IC50: 14.9 µM

## Cc1cc(C)nc(NC(N)=NCCc2ccccc2)n1
  IC50: > 80 µM (inactive)

## COc1cc(C(=O)O/N=C2/C=C(C)C(=O)C=C2C)cc(OC)c1OC
  IC50: > 80 µM (inactive)

## COc1cc(/C=C2\SC(c3ccc(C)cc3)=NC2=O)ccc1O
  IC50: > 80 µM (inactive)

## O=c1c2cc(F)ccc2sn1-c1ccc(F)cc1
  IC50: 25.5 µM

## COc1ccc(CNC(=O)Cc2cn(C)c3ccccc23)c(OC)c1
  IC50: > 80 µM (inactive)

## CCOc1ccccc1NC(=O)CCCc1nc2ccccc2c(=O)[nH]1
  IC50: > 80 µM (inactive)

## COc1cc(NCc2ccccc2O)c2ncccc2c1
  IC50: > 80 µM (inactive)

## COc1ccc(C(=O)c2c(C(F)(F)F)oc3c2C(=O)c2ccccc2C3=O)cc1
  IC50: > 80 µM (inactive)

## N#Cc1ccc2c(=O)n(-c3ccccc3)sc2c1
  IC50: > 80 µM (inactive)

## CCOc1ccc(N(CC(=O)N/N=C/c2cc([N+](=O)[O-])ccc2Cl)S(C)(=O)=O)cc1
  IC50: > 80 µM (inactive)

## COC1(OC)C=CC(=O)C=C1NC(=O)c1ccccc1OC(C)=O
  IC50: > 80 µM (inactive)

## O=C(Cn1sc2ccccc2c1=O)Nc1ccc(F)cc1
  IC50: 21.9 µM

## Cc1ccc(SC2=C(Sc3ccc(C)cc3)C(=O)c3ccccc3C2=O)cc1
  IC50: > 80 µM (inactive)

## COc1ccc(NS(=O)(=O)c2ccc(N3CCCC3)c(NC(=S)Nc3cccc(C)c3C)c2)cc1
  IC50: > 80 µM (inactive)

## O=C(CN1C(=O)C2C3C=CC(C3)C2C1=O)OCC(=O)c1ccc([N+](=O)[O-])cc1 (configuration not stated)
  IC50: 56.7 µM

## Cc1ccccc1OCC(=O)NCC(=O)OCC(=O)c1ccc([N+](=O)[O-])cc1
  IC50: 50.1 µM

## CC(=O)Nc1cc(OC(C)=O)c2nonc2c1OC(C)=O
  IC50: > 80 µM (inactive)

## O=c1c2ccccc2sn1-c1cccc(Cl)c1
  IC50: 13.7 µM

## Cc1ccc(NC2=C(NC(=O)c3ccccc3)C(=O)c3ccccc3C2=O)cc1Cl
  IC50: > 80 µM (inactive)

## Cc1nnc(Sc2cc(NCCO)c([N+](=O)[O-])c3nonc23)s1
  IC50: 53.1 µM

## CCNc1cc2c(cc1O)CCC1C2CCC2(C)C(O)CCC12 (configuration not stated)
  IC50: > 80 µM (inactive)

## O=C1NC(=O)N(c2ccccc2)C(=O)/C1=C/c1ccc([N+](=O)[O-])s1
  IC50: > 80 µM (inactive)

## O=C(Nc1ccc(N2CCOCC2)c(Cl)c1)c1ccc(Cl)cc1
  IC50: > 80 µM (inactive)

## Cc1ccc(S(=O)(=O)SC/C=C/CSS(=O)(=O)c2ccc(C)cc2)cc1
  IC50: 64.4 µM

## O=C(OCC(=O)c1ccc([N+](=O)[O-])cc1)/C(=C\c1ccc(Cl)cc1)NC(=O)c1ccccc1
  IC50: > 80 µM (inactive)

## COc1cc(-c2cc(OC)c(O)c(OC)c2)cc(OC)c1O
  IC50: > 80 µM (inactive)

## O=C(CSc1nc2cc(Cl)ccc2s1)c1ccco1
  IC50: > 80 µM (inactive)

## CCN1/C(=C/C=C/C=C/C=C/c2sc3ccccc3[n+]2CC)Sc2ccccc21
  IC50: > 80 µM (inactive)

## COc1cc(CN2CCN(CCCc3ccccc3)C(CCO)C2)cc(OC)c1O (configuration not stated)
  IC50: > 80 µM (inactive)

## COc1cccc(C2(c3cccc(OC)c3)CC2C(=O)Nc2ccc(F)cc2)c1 (configuration not stated)
  IC50: > 80 µM (inactive)

## CC(C)c1nnc(NC(=O)c2sc3ccccc3c2Cl)s1
  IC50: > 80 µM (inactive)

## COc1ccc(NC(=S)N(CCC(C)C)C2CCN(C(C)C)CC2)cc1Cl
  IC50: > 80 µM (inactive)

## Cc1cc(O)c(C(C)C)cc1N=Cc1ccc(N(C)C)cc1
  IC50: > 80 µM (inactive)

## CC1(C)CC2(CC(c3ccccc3F)c3ccc(O)c(O)c3O2)NC(=S)N1 (configuration not stated)
  IC50: 32.1 µM

## CCn1c(N)c(C(=O)NC)sc1=S
  IC50: > 80 µM (inactive)

## O=C(CBr)c1ccc([N+](=O)[O-])c(CS(=O)(=O)c2ccc(Cl)cc2)c1
  IC50: 42.5 µM

## C[C@H](CO)N1C[C@H](C)[C@@H](CN(C)C(=O)Nc2ccc(C(F)(F)F)cc2)Oc2c(cccc2N(C)C)C1=O
  IC50: > 80 µM (inactive)

## CCN1CCCC1CNC(=O)c1ccc2c(c1)NC(=O)/C(=C\c1ccccc1Cl)S2 (configuration not stated)
  IC50: > 80 µM (inactive)

## CC(=O)OCC1(C)CN(c2ccccc2)NC1=O (configuration not stated)
  IC50: > 80 µM (inactive)

## CCN1CCN(C(=S)c2ccc(O)cc2)CC1
  IC50: > 80 µM (inactive)

## Clc1nssc1=Nc1nncs1
  IC50: 35.6 µM

## CN1CCN(C(=S)c2ccc(Br)cc2)CC1
  IC50: > 80 µM (inactive)

## CC1(OC(=O)C2CCCC2)C(=O)C=C2C=C(c3ccsc3)N(Cc3ccc4c(c3)OCO4)C=C2C1=O (configuration not stated)
  IC50: > 80 µM (inactive)

## COc1ccc(CN(C)S(=O)(=O)c2nnc(NC(=O)c3ccc(C)cc3)s2)cc1OC
  IC50: > 80 µM (inactive)

## CCOC(=O)c1sc(NC(=O)CSc2nnc(Cc3ccccc3)o2)c(C#N)c1C
  IC50: > 80 µM (inactive)

## CC1CN(c2ccccc2)NC1=O (configuration not stated)
  IC50: > 80 µM (inactive)

## CC1=CC(=NOC(=O)/C=C/c2ccccc2)C=C(C)C1=O
  IC50: > 80 µM (inactive)

## CC(CNc1ccccc1O)C(=O)O (configuration not stated)
  IC50: > 80 µM (inactive)

## CN1C(=O)C(N=Nc2ccc([N+](=O)[O-])cc2)SC1=S (configuration not stated)
  IC50: > 80 µM (inactive)

## Cc1ccc(/C=C/C(=O)N2CCN(S(=O)(=O)c3ccc(C)c(C)c3)CC2)o1
  IC50: > 80 µM (inactive)

## O=C(O)c1ccccc1NS(=O)(=O)c1cccc(-n2sc3ccccc3c2=O)c1
  IC50: > 80 µM (inactive)

## Cc1nnc(N/N=C/c2ccc(-c3ccccc3F)o2)n1N
  IC50: > 80 µM (inactive)

## COc1cccc(C(=O)Nc2nnc(S(=O)(=O)N(C)Cc3ccccc3)s2)c1
  IC50: > 80 µM (inactive)

## CCOC(=O)CSc1nnc(NC(=O)c2cccc([N+](=O)[O-])c2)s1
  IC50: > 80 µM (inactive)

## Clc1ccc(N=c2ssnc2Cl)nc1
  IC50: > 80 µM (inactive)

## Cc1c(N=C2C=C(Br)C(=O)C(Br)=C2)c(=O)n(-c2ccccc2)n1C
  IC50: > 80 µM (inactive)

## CC(=O)Nc1cc2c(cc1[N+](=O)[O-])-c1ccccc1C2O (configuration not stated)
  IC50: 74.5 µM

## CN(C)c1nc(=NCc2cccs2)ss1
  IC50: > 80 µM (inactive)

## CCOC(=O)c1ccc(/[N+]([O-])=C/c2ccccc2)cc1
  IC50: > 80 µM (inactive)

## CN=c1nc(-c2ccccc2)n(-c2ccccc2)s1
  IC50: 13.3 µM

## Cc1ccc(NNS(=O)(=O)c2ccc(C)cc2)cc1
  IC50: > 80 µM (inactive)

## Cc1cc(C)c2c(=O)n(CC(=O)N3CCC(N4CCCCC4)CC3)sc2n1
  IC50: > 80 µM (inactive)

## Cn1cc(S(=O)(=O)CC(=O)N2CCc3ccccc32)c2ccccc21
  IC50: > 80 µM (inactive)

## CCOc1ccccc1CNc1ccc(O)cc1
  IC50: > 80 µM (inactive)

## Cc1noc(C(=O)Nc2sc3c(c2C#N)CCC3)c1Cl
  IC50: > 80 µM (inactive)

## CCN(CC)CCNC(=O)CCCCn1c(=S)[nH]c2c([nH]c3ccc(OC)cc32)c1=O
  IC50: > 80 µM (inactive)

## Cn1c2ccccc2c2ccc3c(c21)C(=O)C=CC3=O
  IC50: > 80 µM (inactive)

## O=C1C=CC(=O)N1CCCCCCCCCCN1C(=O)C=CC1=O
  IC50: > 80 µM (inactive)

## CC1=NOC(=O)/C1=C\c1ccc(-c2ccccc2Br)o1
  IC50: > 80 µM (inactive)

## CC(SCC(=O)Nc1ccccc1)c1nc2ccccc2c(=O)[nH]1 (configuration not stated)
  IC50: > 80 µM (inactive)

## Cc1ccc(/C=C/C(=O)NCC2COc3ccccc3O2)o1 (configuration not stated)
  IC50: > 80 µM (inactive)

## COc1cc(SSc2cc(OC)cc([N+](=O)[O-])c2N)c(N)c([N+](=O)[O-])c1
  IC50: 13.1 µM

## COc1ccc(CCn2c(NN)nc3c2c(=O)[nH]c(=O)n3C)cc1
  IC50: > 80 µM (inactive)

## COc1cc(/C=C2\CC/C(=C\c3cc(OC)c(O)c(OC)c3)C2=O)cc(OC)c1O
  IC50: > 80 µM (inactive)

## OCCN1CCN(C(=S)c2ccc(-c3ccccc3)cc2)CC1
  IC50: > 80 µM (inactive)

## COc1ccc(C(=O)Nc2nnc(S(=O)(=O)N3CCOCC3)s2)cc1
  IC50: > 80 µM (inactive)

## CCOc1ccc(S(=O)(=O)Nc2cc(SCC(=O)O)c(O)c3ccccc23)cc1
  IC50: > 80 µM (inactive)

## Cc1ccc(NC(=O)c2cc(N3C(=O)C=CC3=O)ccc2N2CCOCC2)cc1Cl
  IC50: > 80 µM (inactive)

## O=C(Nc1nnc(S(=O)(=O)N2CCCCCC2)s1)c1cccc(Br)c1
  IC50: > 80 µM (inactive)

## COc1ccc(C2(CNC(=O)c3ccc(OC)c([N+](=O)[O-])c3)CCCCC2)cc1OC
  IC50: > 80 µM (inactive)

## CC(=O)Nc1ccc2sn(-c3ccccc3)c(=O)c2c1
  IC50: 18.2 µM

## COc1cccc(C=Nc2cc(C(C)C)c(O)cc2C)c1O
  IC50: > 80 µM (inactive)

## O=C1NC(=S)NC(=O)C1=Cc1ccc(Br)s1
  IC50: > 80 µM (inactive)

## COC1=CC(=O)C=C(OC)C1(O)CC(C)=O
  IC50: > 80 µM (inactive)

## CCOC(=O)C1CCCN(C(=O)Cn2sc3nc(C)cc(C)c3c2=O)C1 (configuration not stated)
  IC50: > 80 µM (inactive)

## Cc1cccc(OCC(=O)NCC(=O)N/N=C/c2ccccc2)c1
  IC50: > 80 µM (inactive)

## Cc1ccc(S(=O)(=O)/N=C2/C=C(C3C(=O)CC(C)(C)CC3=O)C(=O)c3ccccc32)cc1
  IC50: > 80 µM (inactive)

## O=C(Nc1nnc(S(=O)(=O)N2CCCC2)s1)c1cccc([N+](=O)[O-])c1
  IC50: > 80 µM (inactive)

## O=C(Nc1nnc(C2CC2)s1)c1ccc(Cl)nc1
  IC50: > 80 µM (inactive)

## COc1cc(N)c2ncccc2c1Cl
  IC50: > 80 µM (inactive)

## COc1ccc(S(=O)(=O)Nc2cc(SCC(=O)O)c(O)c3ccccc23)cc1
  IC50: > 80 µM (inactive)

## O=C(CN1CCN(c2ccc(O)cc2)CC1)Nc1cc(S(=O)(=O)N2CCOCC2)ccc1Cl
  IC50: > 80 µM (inactive)

## Cc1ccc(-c2nc(N3CCOCC3)s[n+]2-c2ccccc2)cc1
  IC50: > 80 µM (inactive)

## Cc1ccc(-c2nn(C)c(=O)c3ccccc23)cc1CNC(=O)/C=C/c1ccccc1
  IC50: > 80 µM (inactive)

## Cc1cc(C)c(S(=O)(=O)Nc2cc(SCC(=O)O)c(O)c3ccccc23)cc1C
  IC50: > 80 µM (inactive)

## O=C(Cn1sc2ccccc2c1=O)NC12CC3CC(CC(C3)C1)C2
  IC50: 15.1 µM

## Cc1ccc(/C=C2\C(=O)NC(=S)N(c3ccccc3F)C2=O)s1
  IC50: > 80 µM (inactive)

## O=C(CCl)NCCN1C(=O)S/C(=C\c2cccnc2)C1=O
  IC50: > 80 µM (inactive)

## Nc1c(C(=O)Nc2ccc(F)cc2)sc(=S)n1-c1ccccc1F
  IC50: > 80 µM (inactive)

## Cc1nc2ccccn2c1-c1ccnn1S(=O)(=O)c1ccc(F)cc1
  IC50: > 80 µM (inactive)

## OCCN1CCN(C(=S)c2ccc(Cl)c(Cl)c2)CC1
  IC50: > 80 µM (inactive)
